Here are results for five compounds from patent US8846671B2, “Heterocyclic alkynyl benzene compounds and medical compositions and uses thereof” (Guangzhou Institute of Biomedicine and Health, Chinese …, priority 2010, dated 2014).

This data set in a line: Pharmacokinetics and bioavailability in rats. The data set is classed as in vivo. As to conditions: SD rats; for bioavailability / BA(% Oral bioavailability): calculated according to AUC data, PO vs IV; for bioavailability: read-out: BA(% Oral bioavailability). The protocol:
Pharmacokinetics and bioavailability in rats. […] The blood samples were collected at the proper time points after administration, add heparin-anticoagulant, and the supernatants of the blood samples were collected (3000 rpm, 10 min) and stored at -20° C. for HPLC-MS analysis. After protein-precipitation procedure with acetonitrile, supernatants were collected after 3000 rpm, 10 min for analysis with HPLC-MS. The data were analyzed with software DAS2.0 to separately acquire the parameters of compartment models and non-compartment models. The bioavailability was calculated according to AUC data.

[1] abbreviates: both sexes, Sprague-Dawley, rat, plasma, iv, 5 mg/kg, IV 5 mg/kg.
[2] abbreviates: both sexes, Sprague-Dawley, rat, plasma, iv, 5 mg/kg, IV 5 mg/kg, read-out: Cmax.
Where [3] appears, read: both sexes, Sprague-Dawley, rat, plasma, iv, 5 mg/kg, IV 5 mg/kg, read-out: Tmax.
Where [4] appears, read: both sexes, Sprague-Dawley, rat, plasma, po, 25 mg/kg, PO 25 mg/kg.
The mark [5] stands for this setting: both sexes, Sprague-Dawley, rat, plasma, po, 25 mg/kg, PO 25 mg/kg, read-out: Cmax.
Setting [6] is: both sexes, Sprague-Dawley, rat, plasma, po, 25 mg/kg, PO 25 mg/kg, read-out: Tmax.
Setting [7] is: both sexes, Sprague-Dawley, rat, plasma, po.
Where [8] appears, read: both sexes, Sprague-Dawley, rat, plasma, iv, 10 mg/kg, IV 10 mg/kg.
Where [9] appears, read: both sexes, Sprague-Dawley, rat, plasma, po, 20 mg/kg, PO 20 mg/kg.
[10] abbreviates: IV 5 mg/kg, dihydrochloride, 5 mg/kg.
The mark [11] stands for this setting: PO 25 mg/kg, dihydrochloride, 25 mg/kg.

The term AUC(0-inf) denotes total exposure, with the tail of the curve extrapolated. Read a high AUC(0-inf) as more exposure. The half-life is how long it takes for the measured level to halve. Lower therefore signals rapid decline. For orientation: Cmax means the maximum level reached in the sampled fluid or tissue. One may read the Tmax as the time from dosing to the highest level. Usually bioavailability stands for the share of a dose that reaches the circulation, judged against a reference dose that is usually intravenous.

Structures can show the parent of a compound that is named as a salt. Where two headings read alike, the source gives them in different places.

On to `Cc1ccc(C(=O)Nc2ccc(CN3CCN(C)CC3)c(C(F)(F)F)c2)cc1C#Cc1cnc(NC2CC2)nc1` [D825 mesylate salt, 3-(2-(2-(cyclopropylamino)pyrimidin-5-yl)ethynyl)-4-methyl-N-(4-((4-methylpiperazin-1-yl)methyl)-3-(trifluoromethyl)phenyl)benzamide trimesylate], for which the area under the curve AUC(0-inf) was determined as 11800 ng·h/mL under setting [1] and 34600 ng·h/mL under setting [4]. Besides, the half-life is 11.7 h under setting [1] and 11.5 h under setting [4]. The Cmax is, setting by setting: under setting [2], 2330 ng/mL; under setting [5], 1700 ng/mL. For the same compound, the Tmax under setting [3] was 0.033 h and the Tmax under setting [6] is 4.75 h. The bioavailability under setting [7] is 58.5%.

As for `Cc1cn(-c2cc(NC(=O)c3ccc(C)c(C#Cc4cnc5[nH]ncc5c4)c3)cc(C(F)(F)F)c2)cn1` [D767 hydrochloride salt, 3-(2-(1H-pyrazolo[3,4-b]pyridin-5-yl)ethynyl)-4-methyl-N-(3-(4-methyl-1H-imidazol-1-yl)-5-(trifluoromethyl)phenyl)benzamide], the “BA(% Oral bioavailability)” value is 19%. Moreover, where the note is “PO 25 mg/kg, 25 mg/kg”, the “AUC(0-∞)” value came to 62208 ng·h/mL and the Tmax came out at 7.75 h. Besides, under setting [1], the AUC(0-inf) stood at 65500 ng·h/mL and the half-life is 5.6 h. Besides, under setting [2], the Cmax stood at 15300 ng/mL. Moreover, the time to peak (Tmax) under setting [3] is 0.033 h. Under setting [4], this compound showed a half-life of 7.18 h. The Cmax under setting [5] came to 3620 ng/mL.

With `Cc1cn(-c2cc(NC(=O)c3ccc(C)c(C#Cc4cnc(NC(C)C)nc4)c3)cc(C(F)(F)F)c2)cn1` [D752 mesylate salt, 3-(2-(2-(isopropylamino)pyrimidin-5-yl)ethynyl)-4-methyl-N-(3-(4-methyl-1H-imidazol-1-yl)-5-(trifluoromethyl)phenyl)benzamide], the AUC(0-inf) amounted to 305000 ng·h/mL under setting [8] and 70400 ng·h/mL under setting [9]. In addition, the half-life under setting [8] is 43.9 h and the half-life under setting [9] was 7.55 h. In addition, the Cmax runs as follows: (both sexes, Sprague-Dawley, rat, plasma, iv, 10 mg/kg, IV 10 mg/kg, read-out: Cmax) 19600 ng/mL; (both sexes, Sprague-Dawley, rat, plasma, po, 20 mg/kg, PO 20 mg/kg, read-out: Cmax) 1900 ng/mL. Besides, the Tmax runs as follows: (both sexes, Sprague-Dawley, rat, plasma, iv, 10 mg/kg, IV 10 mg/kg, read-out: Tmax) 0.033 h; (both sexes, Sprague-Dawley, rat, plasma, po, 20 mg/kg, PO 20 mg/kg, read-out: Tmax) 20 h. The bioavailability under setting [7] was 11.5%.

As for `Cc1ccc(C(=O)Nc2cc(-n3ccnc3)cc(C(F)(F)F)c2)cc1C#Cc1cnc2[nH]ncc2c1` [D831 mesylate salt, N-(3-(1H-imidazol-1-yl)-5-(trifluoromethyl)phenyl)-3-(2-(1H-pyrazolo[3,4-b]pyridin-5-yl)ethynyl)-4-methylbenzamide], the AUC(0-inf) by setting is: under setting [1], 107000 ng·h/mL; under setting [4], 73900 ng·h/mL. The half-life is 5.24 h under setting [1] and 4.66 h under setting [4]. The Cmax is, setting by setting: under setting [2], 64200 ng/mL; under setting [5], 9520 ng/mL. In addition, the Tmax was determined as 0.033 h under setting [3] and 2.25 h under setting [6]. Besides, the bioavailability under setting [7] is 13.8%.

For `Cc1ccc(C(=O)Nc2ccc(CN3CCN(C)CC3)c(C(F)(F)F)c2)cc1C#Cc1cnc2[nH]ncc2c1` [D824 hydrochloride salt, 3-(2-(1H-pyrazolo[3,4-b]pyridin-5-yl)ethynyl)-4-methyl-N-(4-((4-methylpiperazin-1-yl)methyl)-3-(trifluoromethyl)phenyl)benzamide dihydrochloride], under setting [10], the “AUC(0-∞)” value was 2922.411 ng·h/mL, the Cmax was found to be 1375.625 ng/mL, the T1/2 amounted to 5.557 h and the time to peak (Tmax) came to 0.067 h. Also, under setting [11], the “AUC(0-∞)” value was determined as 7108.253 ng·h/mL, the maximum concentration (Cmax) is 390.5 ng/mL and the T1/2 was determined as 10.55 h. In addition, where the note is “dihydrochloride”, the “BA(% Oral bioavailability)” value was 48.7%. The Tmax under setting [6] was 6 h.
